The test system of assay [1] is UTR-2 G4 in the 5′UTR of KRAS mRNA. Put plainly: FRET melting assay, UTR-2 RNA G4. It counts as binding. The following applies: G4 0.2 μM, ligand 1 μM. As to the method:
Two compounds 2d and 3e were selected and evaluated for their ability to stabilize the 32-mer sequence in the NHE of the human KRAS promoter (KRAS32R)[12], two G4 motifs in the 5′UTR of KRAS mRNA (UTR-1 and UTR-2)[24] and a 21-mer DNA G4 from the human telomeric sequence (F21T). The KRAS32R sequence has been described as forming two G4 structures which exist in equilibrium. One sequence folds into a G4 (Q1) with a Tm of ~55°C that is disrupted on increasing the temperature and then, the full-length 32-mer sequence folds into a new G4 (Q2, Tm of ~72°C)[13]. In our assay, the KRAS32R sequence (in the presence or absence of IQcs) folded in a single G4 structure (Tm ≈ 54°C), as shown by the single inflection for the first derivative of the FRET melting data (Sup. Inf.; Figure S4). This monophasic behaviour was also observed in the presence of TMPyP4[13].
Oligonucleotide sequences were purchased from Eurofins MWG Synthesis GmbH, Germany or STAB VIDA Genomics Lab, Caparica, Lisbon, Portugal. […]
The ability of indolo[3,2-c]quinolines to stabilize DNA sequences was investigated using a Fluorescence Resonance Energy Transfer (FRET) assay as reported elsewhere.

The subject of assay [2] is Panc1 (chemo-resistant pancreatic). Put plainly: SRB short-term cytotoxicity assay, Panc1. It counts as cell-based. The following applies: Homo sapiens, PANC-1, 96 h. As to the method: (§1) Short-term anti-proliferative assays were carried out by two different assays using a panel of human cancer and non-malignant human cell lines. […] The transformed human embryonic kidney cell line HEK293T (wt KRAS) was sensitive to all tested drugs, including TMPyP4, a cationic porphyrin established as a G4 ligand, as well as the anticancer drug 5-fluorouracil (5-FU).
(§2) Human cell lines, breast carcinoma (MCF7), lung carcinoma (A549), pancreatic cancer (MIA PaCa2, Panc-1), immortalised telomerase-negative human lung fibroblast (ALT) and normal human lung fibroblast (WI-38), were all purchased from American Type Cell Culture (ATCC). Cell lines were maintained in appropriate medium supplemented with 10% fetal bovine serum (Invitrogen, UK), 2 mM L-glutamine (Invitrogen, Netherlands), and other components as specified by the suppliers. All cell lines were maintained at 37°C, 5% CO2, and routinely passaged. Short-term growth inhibition was measured using the SRB assay as described previously[43] (additional details described in Supplementary Information). […]
Sulforhodamine B (SRB) short-term cytotoxicity assay
Cells were seeded at appropriate densities into the wells of 96 well plates in their corresponding medium and incubated overnight to allow the cells to attach. Subsequently cells were exposed to various concentrations of freshly made solutions of drugs and incubated for 96 h. The cells were subsequently fixed with ice-cold trichloacetic acid (TCA) (10%, w/v) for 30 min and stained with 0.4% SRB dissolved in 1% acetic acid for 15 min.
All incubations were carried out at room temperature except for TCA fixation, which was at 4 °C. The IC50 value, the concentration required to inhibit cell growth by 50%, was determined from the mean absorbance at 540 nm for each drug concentration expressed as a percentage of the control untreated well absorbance. (Performed at School of Pharmacy, University College of London). […]
(#sc-30/sc-126; Santa Cruz Biotechnology Inc., Santa Cruz, CA, USA). […]

Assay [3] deals with UTR-1 (RNA, G4) GCGGCGGCGGAGG
In words: FRET melting. The following applies: 60 mM K+; K-cacodylate pH 7.4; 0.2 μM RNA, 1 μM compound; SD ≤ 0.2.

In assay [4] the test system is KRAS21R (DNA, G4) AGGGCGGTGTGGGAAGAGGGA
Put plainly: spectrofluorimetric titration, one-site Hill slope fit. The following applies: 60 mM K+, K-cacodylate pH 7.4, 25 °C, 1 μM compound, apparent, SD ≤ 0.2 × 10^6.

Assay [5] deals with MiaPaCa2 (pancreatic). Put plainly: SRB short-term cytotoxicity assay, MiaPaCa2. The following applies: Homo sapiens, MIA PaCa-2, 96 h. It counts as cell-based. How it is done: as §1
as §2, with “previously[43]” for “previously[43] (additional details described in Supplementary Information).”
After electrophoretic transfer onto nitrocellulose membranes, immunoblots were blocked with 5% milk solution, and next incubated overnight at 4 °C with primary mouse monoclonal antibody reactive to KRAS/p53 (#sc-30/sc-126; Santa Cruz Biotechnology Inc., Santa Cruz, CA, USA). […] Steady-state protein levels were expressed as mean ±SEM from at least three independent experiments.

We go through 3 compounds from article PMC5382548 (Scientific Reports, 2015).

With `CCN(CC)CCCNc1ccc2c(c1)c1[nH]c3ccccc3c1c[n+]2C` [2d], in assay [1], the “ΔTm UTR-2” value turned out to be 2.0 °C. The same compound showed an IC50 in assay [2] of 220 nM. Besides, the ΔTm in assay [3] came to 5.1 °C. The Ka in assay [4] (Hill 2.0) came out at 4.4e+06 M⁻¹.
In the case of `Cn1cc2c3ccccc3nc-2c2cc(Br)ccc21` [2a, 2-bromo-5-methyl-indolo[3,2-c]quinoline], the IC50 was 2200 nM in assay [5] and 2750 nM in assay [2].
Consider `CCN(CC)CCCNc1ccc2c(c1)[nH]c1c2c[n+](C)c2ccc(NCCCN(CC)CC)cc12.[Cl-]` [3e], for which the “ΔTm UTR-2” value in assay [1] was determined as 9.9 °C. Also, the IC50 in assay [5] was determined as 1980 nM; in assay [2], 4800 nM. For the same compound, the ΔTm in assay [3] stood at 15.7 °C. Also, the Ka in assay [4] (Hill 2.4) turned out to be 8.6e+06 M⁻¹.
